Here are results for 38 molecules from patent US11787780B2 (CORCEPT THERAPEUTICS INCORPORATED, priority 2020, dated 2023).

In experiment [1] the test system is induction of TAT by dexamethasone in HepG2 cells. Briefly: Hep G2 TAT assay (inhibition of dexamethasone-induced TAT). Particulars: challenge of 100 nM dexamethasone, IC50 converted to Ki by Cheng and Prusoff equation. Format: cell-based, human.
In experiment [2] the target is glucocorticoid receptor (GR) recombinant ligand binding domain (LBD) (Homo sapiens (Human), UniProt P04150). Briefly: GR binding fluorescence polarisation (FP) assay. Particulars: displacement of fluorescently tagged ligand. On the procedure: Binding of test compounds to the glucocorticoid receptor (GR) is determined using a fluorescence polarisation (FP) assay utilising a recombinant ligand binding domain (LBD) of GR. The test compounds are assessed by their ability to displace a fluorescently tagged ligand and detection of the resulting decrease in fluorescence polarisation.
Sequence of glucocorticoid receptor (GR) recombinant ligand binding domain (LBD) (P04150 524-758): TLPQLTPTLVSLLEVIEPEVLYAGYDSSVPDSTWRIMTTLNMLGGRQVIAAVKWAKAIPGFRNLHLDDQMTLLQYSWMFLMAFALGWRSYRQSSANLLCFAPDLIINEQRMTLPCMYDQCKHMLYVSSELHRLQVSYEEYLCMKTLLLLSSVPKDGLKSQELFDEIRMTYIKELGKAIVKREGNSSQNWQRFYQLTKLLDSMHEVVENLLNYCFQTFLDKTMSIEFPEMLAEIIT
On the technique in general: Fluorescence polarisation rises when a labelled molecule tumbles more slowly, as on binding a larger partner.

The structures appear in SMILES notation.

In general, Ki refers to a dissociation constant, usually derived from enzyme kinetics or from competition with a known ligand. Lower therefore signals tighter binding. What is called IC50 is the concentration at which inhibition is half-maximal. In experiment [1], `CCOC(=O)N1CCN(c2cc3cnn(-c4ccc(F)cc4)c3cc2C)CC12CC2` [Example 103] registered a Ki of 1.71 µM. For the same molecule, the IC50 in experiment [2] is 0.135 µM.
For `CCCn1cc(S(=O)(=O)NC2(C)CCN(c3cc4cnn(-c5ccc(F)cc5)c4cc3C)C2)cn1` (stereo not shown) [Example 120], in that order: 0.218 µM and 0.003 µM.
In experiment [1], `COCCN([C@@H]1CCN(c2cc3cnn(-c4ccc(F)cc4)c3cc2C)C1)S(=O)(=O)c1cnn(C)c1` [Example 121] returned a Ki of 0.12 µM. For the same molecule, in experiment [2], the IC50 came to 0.04 µM.
For `CCCn1cc(S(=O)(=O)N(CCOC)[C@@H]2CCN(c3cc4cnn(-c5ccc(F)cc5)c4cc3C)C2)cn1` [Example 122], in that order: 0.155 µM and 0.014 µM.
In the same order, the values of `Cc1cc2c(cnn2-c2ccc(F)cc2)cc1N1CCC[C@H](N(C)S(C)(=O)=O)C1` [Example 123] are 0.284 µM and 0.073 µM.
For `Cc1cc2c(cnn2-c2ccc(F)cc2)cc1N1CCC[C@H](N(C)S(=O)(=O)c2cnn(C)c2)C1` [Example 124], in that order: 0.216 µM and 0.058 µM.
For `CCCn1cc(S(=O)(=O)NC2(C)CCN(c3cc4cnn(-c5ccc(F)cc5)c4cc3C)CC2)cn1` [Example 129], in experiment [1], the Ki worked out at 0.066 µM. For the same molecule, the IC50 in experiment [2] was found to be 0.005 µM.
Molecule `Cc1cc2c(cnn2-c2ccc(F)cc2)cc1N1CCC(C)(NS(C)(=O)=O)CC1` [Example 130] yielded an inhibition constant (Ki) in experiment [1] of 0.144 µM. Moreover, the concentration for half-maximal inhibition (IC50) in experiment [2] amounted to 0.008 µM.
For `Cc1cc2c(cnn2-c2ccc(F)cc2)cc1N1CCC(C)(NS(=O)(=O)c2cnn(C)c2)CC1` [Example 131], in that order: 0.098 µM and 0.004 µM.
Turning to `Cc1cc2c(cnn2-c2ccc(F)cc2)cc1N1CCC(C)(NS(=O)(=O)c2cnn(CC3CC3)n2)CC1` [Example 132], the affinity in experiment [1] corresponds to a Ki of 0.034 µM. The IC50 in experiment [2] was 0.013 µM.
For `Cc1cc2c(cnn2-c2ccc(F)cc2)cc1N1CCC(C)(NS(=O)(=O)c2cnn(CC3CC3)c2)CC1` [Example 133], in that order: 0.05 µM and 0.007 µM.
Take `CCCn1cc(S(=O)(=O)N2CC=C(c3cc4cnn(-c5ccc(F)cc5)c4cc3C(C)C)CC2)cn1` [Example 141]: the Ki in experiment [1] was 0.487 µM. For the same molecule, the IC50 in experiment [2] came out at 4.22 µM.
Molecule `CS(=O)(=O)N1CC=C(c2cc3cnn(-c4ccc(F)cc4)c3cc2Cl)CC1` [Example 142] gave a Ki in experiment [1] of 0.715 µM. The half-maximal inhibitory concentration (IC50) in experiment [2] was found to be 0.429 µM.
For `CCCn1cc(S(=O)(=O)N2CC=C(c3cc4cnn(-c5ccc(F)cc5)c4cc3Cl)CC2)cn1` [Example 143], in that order: 0.032 µM and 0.384 µM.
Molecule `CCCn1cc(S(=O)(=O)N2CC=C(c3cc4cnn(-c5ccc(F)cc5)c4cc3OC(F)F)CC2)cn1` [Example 144] had a Ki in experiment [1] of 0.18 µM. The IC50 in experiment [2] worked out at 0.265 µM.
Consider `CCCn1cc(S(=O)(=O)N2CCC(Cc3ccccc3)(c3cc4cnn(-c5ccc(F)cc5)c4cc3C)C2)cn1` (stereo not shown) [Example 147], for which the Ki in experiment [1] turned out to be 0.012 µM. Moreover, the IC50 in experiment [2] turned out to be 0.042 µM.
As to `Cc1cc2c(cnn2-c2ccc(F)cc2)cc1C1(Cc2cccnc2)CCN(S(C)(=O)=O)C1` (stereo not shown) [Example 148], the affinity in experiment [1] corresponds to a Ki of 0.331 µM. In addition, the half-inhibitory concentration (IC50) in experiment [2] came out at 0.024 µM.
`CCCn1cc(S(=O)(=O)N2CCC(Cc3cccnc3)(c3cc4cnn(-c5ccc(F)cc5)c4cc3C)C2)cn1` (stereo not shown) [Example 149] came in with a Ki in experiment [1] of 0.108 µM. In experiment [2], the IC50 stood at 0.013 µM.
In the same order, the values of `Cc1cc2c(cnn2-c2ccc(F)cc2)cc1C1(Cc2ccccn2)CCN(S(C)(=O)=O)C1` (stereo not shown) [Example 150] are 0.169 µM and 0.013 µM.
Regarding `Cc1cc2c(cnn2-c2ccc(F)cc2)cc1C1(Cc2ccccn2)CCN(S(=O)(=O)c2cnn(C)c2)C1` (stereo not shown) [Example 151], the Ki in experiment [1] is 0.161 µM. The IC50 in experiment [2] amounted to 0.017 µM.
For `Cc1cc2c(cnn2-c2ccc(F)cc2)cc1C1(Cc2ccccc2)CCN(S(=O)(=O)c2cnn(C)c2)C1` (stereo not shown) [Example 153], in that order: 0.026 µM and 0.011 µM.
In the same order, the values of `Cc1cc2c(cnn2-c2ccc(F)cc2)cc1C1(Cc2ccccc2)CCN(S(=O)(=O)c2cncs2)C1` (stereo not shown) [Example 154] are 0.014 µM and 0.269 µM.
For `Cc1cc2c(cnn2-c2ccc(F)cc2)cc1C1(Cc2ccccc2)CCN(S(=O)(=O)C2CC2)C1` (stereo not shown) [Example 155], in that order: 0.016 µM and 0.013 µM.
As for `Cc1cc2c(cnn2-c2ccc(F)cc2)cc1C1(Cc2ccccc2)CCN(S(=O)(=O)C2CCOCC2)C1` (stereo not shown) [Example 156], the affinity in experiment [1] corresponds to a Ki of 0.036 µM. In addition, the IC50 in experiment [2] stood at 0.011 µM.
In turn, `COc1cc2c(cnn2-c2ccc(F)cc2)cc1C1(Cc2ccccc2)CCN(S(C)(=O)=O)C1` (stereo not shown) [Example 160] gave an inhibitory constant (Ki) in experiment [1] of 0.024 µM. For the same molecule, the IC50 in experiment [2] was determined as 0.005 µM.
In the same order, the values of `COc1cc2c(cnn2-c2ccc(F)cc2)cc1C1(Cc2ccccc2)CCN(S(=O)(=O)c2cnn(C)c2)C1` (stereo not shown) [Example 161] are 0.039 µM and 0.011 µM.
For `CCCn1cc(S(=O)(=O)N2CCC(Cc3ccccc3)(c3cc4cnn(-c5ccc(F)cc5)c4cc3OC)C2)cn1` (stereo not shown) [Example 162], in that order: 0.016 µM and 0.018 µM.
For `CC(C)c1cc2c(cnn2-c2ccc(F)cc2)cc1C1(Cc2ccccc2)CCN(S(C)(=O)=O)C1` (stereo not shown) [Example 163], in that order: 0.06 µM and 0.106 µM.
Regarding `CC(C)c1cc2c(cnn2-c2ccc(F)cc2)cc1C1(Cc2ccccc2)CCN(S(=O)(=O)c2cnn(C)c2)C1` (stereo not shown) [Example 164], in experiment [1], affinity was put at a Ki of 0.089 µM. In addition, the IC50 in experiment [2] was 0.189 µM.
`CCCn1cc(S(=O)(=O)N2CCC(Cc3ccccc3)(c3cc4cnn(-c5ccc(F)cc5)c4cc3C(C)C)C2)cn1` (stereo not shown) [Example 165] registered an inhibition constant (Ki) in experiment [1] of 0.037 µM. Also, the IC50 in experiment [2] came to 0.072 µM.
In turn, `COc1cc2c(cnn2-c2ccc(F)cc2)cc1C1(Cc2ccccc2)CCN(S(=O)(=O)C2CC2)C1` (stereo not shown) [Example 166] registered an inhibition constant (Ki) in experiment [1] of 0.026 µM. Also, the IC50 in experiment [2] worked out at 0.014 µM.
For `CCC1(c2cc3cnn(-c4ccc(F)cc4)c3cc2C)CCN(S(C)(=O)=O)C1` (stereo not shown) [Example 167], in that order: 0.256 µM and 0.008 µM.
`CCCn1cc(S(=O)(=O)N2CCC(CC)(c3cc4cnn(-c5ccc(F)cc5)c4cc3C)C2)cn1` (stereo not shown) [Example 168] came in with a Ki in experiment [1] of 0.067 µM. Moreover, the IC50 in experiment [2] came out at 0.006 µM.
For `Cc1cc2c(cnn2-c2ccc(F)cc2)cc1C1(Cc2ccc(C(F)(F)F)cn2)CCN(S(=O)(=O)c2cnn(C)c2)C1` (stereo not shown) [Example 169], in that order: 0.159 µM and 0.217 µM.
In the same order, the values of `Cc1cc2c(cnn2-c2ccc(F)cc2)cc1C1(Cc2ccc(C(F)(F)F)nc2)CCN(S(=O)(=O)c2cnn(C)c2)C1` (stereo not shown) [Example 170] are 0.104 µM and 0.123 µM.
For `Cc1cc2c(cnn2-c2ccc(F)cc2)cc1C1(Cc2ccc(C(F)F)nc2)CCN(S(=O)(=O)c2cnn(C)c2)C1` (stereo not shown) [Example 171], in experiment [1], the Ki is 0.171 µM. In addition, in experiment [2], the IC50 worked out at 0.067 µM.
On to `Cc1cc2c(cc1C1(Cc3ccccc3)CCN(S(=O)(=O)c3cnn(C)c3)C1)nnn2-c1ccc(F)cc1` (stereo not shown) [Example 172], for which the affinity in experiment [1] corresponds to a Ki of 0.083 µM. The concentration for half-maximal inhibition (IC50) in experiment [2] turned out to be 0.058 µM.
Consider `Cn1cc(S(=O)(=O)N2CCC(Cc3ccccc3)(c3cc4cnn(-c5ccc(F)cc5)c4cc3F)C2)cn1` (stereo not shown) [Example 173], for which, in experiment [1], the affinity corresponds to a Ki of 0.069 µM. In experiment [2], the IC50 is 0.066 µM.
